Reference: patent publication US20230139171A1 (SITA Information Networking Computing UK Limited, priority 2019, published 2023)

Legend:
Type in all cases: cell-based
human TLR9 = biological target: T1, human TLR9 (Homo sapiens, UniProt Q9NR96); assay: TLR9 inhibition reporter assay (HEK-Blue cells, SEAP reporter, ODN2006 stimulation); details: HEK-Blue cells overexpressing human TLR9, SEAP reporter, ODN2006 5 nM
T1 construct: host or cells: HEK-Blue cells
T1 sequence (Q9NR96 26-1032): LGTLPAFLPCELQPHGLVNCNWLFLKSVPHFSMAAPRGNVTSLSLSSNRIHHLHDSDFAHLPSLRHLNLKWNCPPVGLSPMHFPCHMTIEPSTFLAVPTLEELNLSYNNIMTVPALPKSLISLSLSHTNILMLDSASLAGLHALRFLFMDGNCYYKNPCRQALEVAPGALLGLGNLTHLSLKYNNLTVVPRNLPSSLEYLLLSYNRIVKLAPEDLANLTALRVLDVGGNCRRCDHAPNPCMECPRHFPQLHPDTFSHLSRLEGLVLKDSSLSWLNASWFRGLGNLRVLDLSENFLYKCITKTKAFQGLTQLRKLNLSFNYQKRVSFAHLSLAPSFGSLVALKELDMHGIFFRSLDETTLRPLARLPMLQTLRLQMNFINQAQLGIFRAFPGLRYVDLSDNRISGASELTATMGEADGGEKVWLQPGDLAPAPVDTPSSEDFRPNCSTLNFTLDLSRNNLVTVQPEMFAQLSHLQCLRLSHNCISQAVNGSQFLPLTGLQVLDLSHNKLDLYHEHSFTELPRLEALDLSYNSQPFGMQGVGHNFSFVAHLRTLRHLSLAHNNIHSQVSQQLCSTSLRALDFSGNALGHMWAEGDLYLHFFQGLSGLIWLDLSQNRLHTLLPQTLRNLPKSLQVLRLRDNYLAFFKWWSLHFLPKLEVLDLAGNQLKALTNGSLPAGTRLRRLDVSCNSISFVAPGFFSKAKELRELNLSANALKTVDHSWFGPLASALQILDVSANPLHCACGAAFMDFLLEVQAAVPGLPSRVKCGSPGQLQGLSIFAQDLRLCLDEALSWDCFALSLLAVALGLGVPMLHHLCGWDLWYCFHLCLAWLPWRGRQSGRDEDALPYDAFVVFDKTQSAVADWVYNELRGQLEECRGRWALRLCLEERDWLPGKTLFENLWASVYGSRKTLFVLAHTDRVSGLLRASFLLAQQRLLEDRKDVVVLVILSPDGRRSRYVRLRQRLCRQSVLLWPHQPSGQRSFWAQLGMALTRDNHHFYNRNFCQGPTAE
Method in brief: (§1)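 Dose–response from 0.05 nM to 50 μM was run in HEK-Blue human TLR7, TLR8 and TLR9 reporter cells. After 30 min at room temperature with compound, ligand was added (TLR7 gardiquimod 7.5 μM; TLR8 R848 15.9 μM; TLR9 ODN2006 5 nM) and SEAP measured next day, at 22 h.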

human TLR8 = biological target: T2, human TLR8 (Homo sapiens, UniProt Q9NR97); assay: TLR8 inhibition reporter assay (HEK-Blue cells, SEAP reporter, R848 stimulation); details: HEK-Blue cells overexpressing human TLR8, SEAP reporter, R848 15.9 μM; read-out: TLR8 IC50
T2 construct: host or cells: HEK-Blue cells
T2 sequence (Q9NR97 27-1041): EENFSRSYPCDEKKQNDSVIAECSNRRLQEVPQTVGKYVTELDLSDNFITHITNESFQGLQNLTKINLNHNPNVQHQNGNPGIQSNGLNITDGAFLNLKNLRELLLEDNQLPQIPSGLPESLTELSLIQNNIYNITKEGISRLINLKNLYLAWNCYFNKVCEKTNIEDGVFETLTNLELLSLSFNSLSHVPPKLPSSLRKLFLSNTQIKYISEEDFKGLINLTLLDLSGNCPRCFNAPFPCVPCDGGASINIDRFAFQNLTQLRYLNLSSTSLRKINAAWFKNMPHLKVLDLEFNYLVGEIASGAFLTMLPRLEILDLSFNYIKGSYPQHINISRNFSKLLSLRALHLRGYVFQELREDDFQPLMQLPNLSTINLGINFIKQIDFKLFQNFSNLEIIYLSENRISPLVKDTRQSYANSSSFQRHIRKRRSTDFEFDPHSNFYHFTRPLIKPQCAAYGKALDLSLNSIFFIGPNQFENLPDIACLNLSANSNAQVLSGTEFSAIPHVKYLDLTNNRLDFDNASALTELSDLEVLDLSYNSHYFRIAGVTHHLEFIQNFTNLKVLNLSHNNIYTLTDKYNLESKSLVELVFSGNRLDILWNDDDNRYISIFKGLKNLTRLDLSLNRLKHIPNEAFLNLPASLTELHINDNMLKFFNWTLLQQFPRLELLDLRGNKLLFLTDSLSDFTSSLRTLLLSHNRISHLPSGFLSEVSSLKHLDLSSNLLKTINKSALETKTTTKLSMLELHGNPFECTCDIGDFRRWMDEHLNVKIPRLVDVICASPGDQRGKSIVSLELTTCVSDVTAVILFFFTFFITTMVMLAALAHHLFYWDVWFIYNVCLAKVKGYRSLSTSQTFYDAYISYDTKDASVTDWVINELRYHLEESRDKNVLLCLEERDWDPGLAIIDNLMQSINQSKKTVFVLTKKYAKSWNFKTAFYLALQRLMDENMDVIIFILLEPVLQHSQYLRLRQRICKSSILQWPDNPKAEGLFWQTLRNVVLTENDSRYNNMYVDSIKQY
Method in brief: as §1

human TLR7 = biological target: T3, human TLR7 (Homo sapiens, UniProt Q9NYK1); assay: TLR7 inhibition reporter assay (HEK-Blue cells, SEAP reporter, gardiquimod stimulation); details: HEK-Blue cells overexpressing human TLR7, SEAP reporter, gardiquimod 7.5 μM; read-out: TLR7 IC50
T3 construct: host or cells: HEK-Blue cells
T3 sequence (Q9NYK1 27-1049): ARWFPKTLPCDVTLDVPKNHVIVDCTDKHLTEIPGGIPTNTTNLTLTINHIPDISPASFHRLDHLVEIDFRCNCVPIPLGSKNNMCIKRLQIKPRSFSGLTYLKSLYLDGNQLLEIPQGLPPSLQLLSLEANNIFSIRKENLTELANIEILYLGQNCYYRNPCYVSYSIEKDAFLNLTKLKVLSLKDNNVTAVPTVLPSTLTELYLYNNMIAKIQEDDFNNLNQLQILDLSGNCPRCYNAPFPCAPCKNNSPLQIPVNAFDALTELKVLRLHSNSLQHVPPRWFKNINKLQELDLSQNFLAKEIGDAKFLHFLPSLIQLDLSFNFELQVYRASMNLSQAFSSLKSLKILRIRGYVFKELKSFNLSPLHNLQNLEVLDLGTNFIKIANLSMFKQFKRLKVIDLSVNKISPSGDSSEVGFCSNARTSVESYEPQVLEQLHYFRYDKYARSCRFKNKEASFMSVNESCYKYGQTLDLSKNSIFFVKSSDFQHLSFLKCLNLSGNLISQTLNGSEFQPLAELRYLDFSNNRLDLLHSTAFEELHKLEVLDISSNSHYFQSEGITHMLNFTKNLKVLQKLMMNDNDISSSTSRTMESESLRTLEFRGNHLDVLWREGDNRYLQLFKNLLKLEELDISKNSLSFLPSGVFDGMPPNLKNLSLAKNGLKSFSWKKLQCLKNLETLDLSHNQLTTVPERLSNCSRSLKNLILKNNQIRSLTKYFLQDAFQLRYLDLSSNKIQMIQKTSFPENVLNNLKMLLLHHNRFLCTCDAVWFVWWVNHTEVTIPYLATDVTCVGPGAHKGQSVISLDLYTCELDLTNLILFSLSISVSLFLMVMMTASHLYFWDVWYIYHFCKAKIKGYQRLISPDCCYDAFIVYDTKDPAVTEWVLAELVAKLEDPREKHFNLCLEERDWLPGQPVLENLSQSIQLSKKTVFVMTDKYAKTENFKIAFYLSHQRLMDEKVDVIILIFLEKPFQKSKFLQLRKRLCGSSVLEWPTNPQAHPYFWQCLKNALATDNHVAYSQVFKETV
Method in brief: as §1

IC50 (human TLR9) [nM]	IC50 (human TLR8) [nM]	IC50 (human TLR7) [nM]	Compound
38100	39.7	13.5	CNC(=O)CN1C[C@H](C)N(c2nc3c(C(C)C)c(-c4cn5ncnc5c(C)c4C)[nH]c3s2)C[C@H]1C [Example 336, 2-((2R,5S)-4-(5-(7,8-dimethyl-[1,2,4]triazolo[1,5-a]pyridin-6-yl)-6-isopropyl-4H-pyrrolo[3,2-d]thiazol-2-yl)-2,5-dimethylpiperazin-1-yl)-N-methylacetamide]
42400	7.61	8.27	Cc1c(-c2[nH]c3sc(N4C[C@@H](C)N(CCS(C)(=O)=O)C[C@@H]4C)nc3c2C(C)C)cn2ncnc2c1C [Example 337, 2-((2S,5R)-2,5-dimethyl-4-(2-(methylsulfonyl)ethyl)piperazin-1-yl)-5-(7,8-dimethyl-[1,2,4]triazolo[1,5-a]pyridin-6-yl)-6-isopropyl-4H-pyrrolo[3,2-d]thiazole]
45600	31.1	10.1	Cc1c(-c2[nH]c3sc(N4C[C@@H](C)N(CC(N)=O)C[C@@H]4C)nc3c2C(C)C)cn2ncnc2c1C [Example 338, 2-((2R,5S)-4-(5-(7,8-dimethyl-[1,2,4]triazolo[1,5-a]pyridin-6-yl)-6-isopropyl-4H-pyrrolo[3,2-d]thiazol-2-yl)-2,5-dimethylpiperazin-1-yl)acetamide]
36600	3.86	19.9	Cc1c(-c2[nH]c3sc(N4C[C@@H](C)N(CC(C)(C)O)C[C@@H]4C)nc3c2C(C)C)cn2ncnc2c1C [Example 339, 1-((2R,5S)-4-(5-(7,8-dimethyl-[1,2,4]triazolo[1,5-a]pyridin-6-yl)-6-isopropyl-4H-pyrrolo[3,2-d]thiazol-2-yl)-2,5-dimethylpiperazin-1-yl)-2-methylpropan-2-ol]
5220	3.38	4.64	CNCC(=O)N1C[C@H](C)N(c2nc3c(C(C)C)c(-c4cn5ncnc5c(C)c4C)[nH]c3s2)C[C@H]1C [Example 340, 1-((2R,5S)-4-(5-(7,8-dimethyl-[1,2,4]triazolo[1,5-a]pyridin-6-yl)-6-isopropyl-4H-pyrrolo[3,2-d]thiazol-2-yl)-2,5-dimethylpiperazin-1-yl)-2-(methylamino)ethan-1-one]
16500	9	7.86	Cc1c(-c2[nH]c3sc(N4C[C@@H](C)N(C(=O)CN(C)C)C[C@@H]4C)nc3c2C(C)C)cn2ncnc2c1C [Example 341, 1-((2R,5S)-4-(5-(7,8-dimethyl-[1,2,4]triazolo[1,5-a]pyridin-6-yl)-6-isopropyl-4H-pyrrolo[3,2-d]thiazol-2-yl)-2,5-dimethylpiperazin-1-yl)-2-(dimethylamino) ethan-1-one]
19200	7.94	6.3	Cc1c(-c2[nH]c3sc(N4CCN(C(=O)CN(C)C)C[C@@H]4C)nc3c2C(C)C)cn2ncnc2c1C [Example 346, (S)-1-(4-(5-(7,8-dimethyl-[1,2,4]triazolo[1,5-a]pyridin-6-yl)-6-isopropyl-4H-pyrrolo[3,2-d]thiazol-2-yl)-3-methylpiperazin-1-yl)-2-(dimethylamino)ethan-1-one]
21700	0.12	8.11	Cc1c(-c2[nH]c3sc(N4CCN(C5CCOCC5)C[C@@H]4C)nc3c2C(C)C)cn2ncnc2c1C [Example 350, (S)-5-(7,8-dimethyl-[1,2,4]triazolo[1,5-a]pyridin-6-yl)-6-isopropyl-2-(2-methyl-4-(tetrahydro-2H-pyran-4-yl)piperazin-1-yl)-4H-pyrrolo[3,2-d]thiazole]
19800	0.98	8.23	Cc1c(-c2[nH]c3sc(N4CCN(C(C)C)C[C@@H]4C)nc3c2C(C)C)cn2ncnc2c1C [Example 351, (S)-5-(7,8-dimethyl-[1,2,4]triazolo[1,5-a]pyridin-6-yl)-6-isopropyl-2-(4-isopropyl-2-methylpiperazin-1-yl)-4H-pyrrolo[3,2-d]thiazole]
24500	1.09	14.4	Cc1c(-c2[nH]c3sc(N4CCN(CC5CC5)C[C@@H]4C)nc3c2C(C)C)cn2ncnc2c1C [Example 352, (S)-2-(4-(cyclopropylmethyl)-2-methylpiperazin-1-yl)-5-(7,8-dimethyl-[1,2,4]triazolo[1,5-a]pyridin-6-yl)-6-isopropyl-4H-pyrrolo[3,2-d]thiazole]
6260	> 3130	> 3130	Cc1cc(-c2[nH]c3sc(N4CCN(C(C)C)C[C@H]4C)nc3c2C(C)C)cn2ncnc12 [Example 366, (R)-6-isopropyl-2-(4-isopropyl-2-methylpiperazin-1-yl)-5-(8-methyl-[1,2,4]triazolo[1,5-a]pyridin-6-yl)-4H-pyrrolo[3,2-d] thiazole]
